# Laboratory results taken from patent US9695155B2, “Herbicidal substituted pyrimidinyloxy benzene compounds” (E. I. DU PONT DE NEMOURS AND COMPANY, priority 2013, dated 2017).
# Key:
# johnsongrass = assay: Test C preemergence; assay type: in vivo, Sorghum halepense; settings: Sorghum halepense, pre-emergence
# In short: (§1)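 Visual injury score versus untreated controls, 0 = no effect, 100 = complete control, taken 13 to 15 days after treatment in the greenhouse. Pre-emergence pots held loam/sand; post-emergence plants grew in sphagnum peat/vermiculite mix and were sprayed at the 1- to 4-leaf stage.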
# oilseed rape [1] = assay: Test C preemergence; assay type: in vivo, Brassica napus; settings: Brassica napus, pre-emergence
# In short: as §1
# ragweed = assay: Test C preemergence; assay type: in vivo, Ambrosia elatior; settings: Ambrosia artemisiifolia, pre-emergence
# In short: as §1
# giant foxtail = assay: Test A postemergence; assay type: in vivo, Setaria faberii; settings: Setaria faberi, post-emergence, 240 h
# In short: (§2)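 Compounds in non-phytotoxic solvent with surfactant applied as soil spray preemergence, or postemergence to plants 2-10 cm at one- to two-leaf stage, in loam/sand. After approximately 10 days in greenhouse, injury rated visually versus untreated controls, 0 (no effect) to 100 (complete control).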
# barnyardgrass [2] = assay: Test A postemergence; assay type: in vivo, Echinochloa crus-galli; settings: Echinochloa crus-galli, post-emergence, 240 h
# In short: as §2
# large (Lg) crabgrass = assay: Test C postemergence; assay type: in vivo, Digitaria sanguinalis; settings: Digitaria sanguinalis, post-emergence
# In short: as §1
# morningglory [3] = assay: Test A preemergence; assay type: in vivo, Ipomoea spp.
# In short: as §2
# barnyardgrass [4] = assay: Test C preemergence; assay type: in vivo, Echinochloa crus-galli; settings: Echinochloa crus-galli, pre-emergence
# In short: as §1
# yellow nutsedge = assay: Test C preemergence; assay type: in vivo, Cyperus esculentus; settings: Cyperus, pre-emergence
# In short: as §1
# Italian ryegrass = assay: Test C preemergence; assay type: in vivo, Lolium multiflorum; settings: Lolium multiflorum, pre-emergence
# In short: as §1
# morningglory [5] = assay: Test C preemergence; assay type: in vivo, Ipomoea coccinea; settings: Ipomoea, pre-emergence
# In short: as §1
# blackgrass [6] = assay: Test C preemergence; assay type: in vivo, Alopecurus myosuroides; settings: Alopecurus myosuroides, pre-emergence, preemergence, scale 0 (no effect) to 100 (complete control), read-out: Blackgrass plant response rating
# In short: as §1
# wheat = assay: Test A postemergence; assay type: in vivo, Triticum aestivum; settings: Triticum aestivum, post-emergence, 240 h
# In short: as §2
# blackgrass [7] = assay: Test C postemergence; assay type: in vivo, Alopecurus myosuroides; settings: Alopecurus myosuroides, post-emergence
# In short: as §1
# oilseed rape [8] = assay: Test C postemergence; assay type: in vivo, Brassica napus; settings: Brassica napus, post-emergence
# In short: as §1
# soybean = assay: Test C preemergence; assay type: in vivo, Glycine max; settings: Glycine max, pre-emergence
# In short: as §1
smiles,measurement,setting,value
"N#Cc1cccc(Oc2ncc(Cl)cn2)c1-n1cc(Br)cn1 [Compound 52, 2-(4-bromo-1H-pyrazol-1-yl)-3-[(5-chloro-2-pyrimidinyl)oxy]benzonitrile]",pest or weed control at 62 g/ha,"johnsongrass; 62 g ai/ha, preemergence, scale 0 (no effect) to 100 (complete control), read-out: Johnsongrass plant response rating",25%
same,pest or weed control at 125 g/ha,"johnsongrass; 125 g ai/ha, preemergence, scale 0 (no effect) to 100 (complete control), read-out: Johnsongrass plant response rating",90%
same,pest or weed control at 250 g/ha,"johnsongrass; 250 g ai/ha, preemergence, scale 0 (no effect) to 100 (complete control), read-out: Johnsongrass plant response rating",100%
same,pest or weed control at 31 g/ha,"johnsongrass; Preemergence, 31 g ai/ha, scale 0 to 100, 0 no effect, 100 complete control, read-out: Plant response rating, Johnsongrass",15%
same,plant injury at 62 g/ha,"oilseed rape [1]; 62 g ai/ha, preemergence, scale 0 (no effect) to 100 (complete control), read-out: Oilseed Rape plant response rating",100%
same,plant injury at 125 g/ha,"oilseed rape [1]; 125 g ai/ha, preemergence, scale 0 (no effect) to 100 (complete control), read-out: Oilseed Rape plant response rating",100%
same,plant injury at 250 g/ha,"oilseed rape [1]; 250 g ai/ha, preemergence, scale 0 (no effect) to 100 (complete control), read-out: Oilseed Rape plant response rating",100%
same,plant injury at 31 g/ha,"oilseed rape [1]; Preemergence, 31 g ai/ha, scale 0 to 100, 0 no effect, 100 complete control, read-out: Plant response rating, Oilseed Rape",100%
same,pest or weed control at 62 g/ha,"ragweed; 62 g ai/ha, preemergence, scale 0 (no effect) to 100 (complete control), read-out: Ragweed plant response rating",90%
same,pest or weed control at 125 g/ha,"ragweed; 125 g ai/ha, preemergence, scale 0 (no effect) to 100 (complete control), read-out: Ragweed plant response rating",95%
same,pest or weed control at 250 g/ha,"ragweed; 250 g ai/ha, preemergence, scale 0 (no effect) to 100 (complete control), read-out: Ragweed plant response rating",100%
same,pest or weed control at 31 g/ha,"ragweed; Preemergence, 31 g ai/ha, scale 0 to 100, 0 no effect, 100 complete control, read-out: Plant response rating, Ragweed",90%
same,pest or weed control at 125 g/ha,"giant foxtail; 125 g ai/ha, 0 to 100 scale where 0 is no effect and 100 is complete control, read-out: Plant response rating, Foxtail, Giant",90%
same,pest or weed control at 500 g/ha,"giant foxtail; 500 g ai/ha, 0 to 100 scale, 0 no effect, 100 complete control, read-out: Plant response rating Foxtail, Giant",100%
same,pest or weed control at 125 g/ha,"barnyardgrass [2]; 125 g ai/ha, 0 to 100 scale where 0 is no effect and 100 is complete control, read-out: Plant response rating, Barnyardgrass",90%
same,pest or weed control at 500 g/ha,"barnyardgrass [2]; 500 g ai/ha, 0 to 100 scale, 0 no effect, 100 complete control, read-out: Plant response rating Barnyardgrass",100%
same,pest or weed control at 125 g/ha,"large (Lg) crabgrass; 125 g ai/ha, postemergence, read-out: Plant response rating (0 to 100), Crabgrass, Large",20%
same,pest or weed control at 250 g/ha,"large (Lg) crabgrass; 250 g ai/ha, postemergence, read-out: Plant response rating (0 to 100), Crabgrass, Large",40%
same,pest or weed control at 31 g/ha,"large (Lg) crabgrass; Postemergence, 31 g ai/ha, scale 0 to 100 (0 no effect, 100 complete control), 13 to 15 days, read-out: Plant response rating, Crabgrass, Large",5%
same,pest or weed control at 62 g/ha,"large (Lg) crabgrass; Postemergence, 62 g ai/ha, scale 0 to 100 (0 no effect, 100 complete control), read-out: Plant response rating, Crabgrass, Large",15%
same,"Plant response rating, Morningglory","morningglory [3]; 125 g ai/ha, 0 to 100 scale where 0 is no effect and 100 is complete control",90
same,pest or weed control at 500 g/ha,"morningglory [3]; Ipomoea, pre-emergence, 240 h, 500 g ai/ha, 0 to 100 scale, 0 no effect, 100 complete control, approx. 10 days, read-out: Morningglory plant response rating",100%
same,pest or weed control at 62 g/ha,"barnyardgrass [4]; 62 g ai/ha, preemergence, scale 0 (no effect) to 100 (complete control), read-out: Barnyardgrass plant response rating",95%
same,pest or weed control at 125 g/ha,"barnyardgrass [4]; 125 g ai/ha, preemergence, scale 0 (no effect) to 100 (complete control), read-out: Barnyardgrass plant response rating",100%
same,pest or weed control at 250 g/ha,"barnyardgrass [4]; 250 g ai/ha, preemergence, scale 0 (no effect) to 100 (complete control), read-out: Barnyardgrass plant response rating",100%
same,pest or weed control at 31 g/ha,"barnyardgrass [4]; Preemergence, 31 g ai/ha, scale 0 to 100, 0 no effect, 100 complete control, read-out: Plant response rating, Barnyardgrass",50%
same,pest or weed control at 62 g/ha,"yellow nutsedge; 62 g ai/ha, preemergence, scale 0 (no effect) to 100 (complete control), read-out: Nutsedge, Yellow plant response rating",10%
same,pest or weed control at 125 g/ha,"yellow nutsedge; 125 g ai/ha, preemergence, scale 0 (no effect) to 100 (complete control), read-out: Nutsedge, Yellow plant response rating",40%
same,pest or weed control at 250 g/ha,"yellow nutsedge; 250 g ai/ha, preemergence, scale 0 (no effect) to 100 (complete control), read-out: Nutsedge, Yellow plant response rating",45%
same,pest or weed control at 31 g/ha,"yellow nutsedge; Preemergence, 31 g ai/ha, scale 0 to 100, 0 no effect, 100 complete control, read-out: Plant response rating, Nutsedge, Yellow",0%
same,pest or weed control at 62 g/ha,"Italian ryegrass; 62 g ai/ha, preemergence, scale 0 (no effect) to 100 (complete control), read-out: Ryegrass, Italian plant response rating",55%
same,pest or weed control at 125 g/ha,"Italian ryegrass; 125 g ai/ha, preemergence, scale 0 (no effect) to 100 (complete control), read-out: Ryegrass, Italian plant response rating",80%
same,pest or weed control at 250 g/ha,"Italian ryegrass; 250 g ai/ha, preemergence, scale 0 (no effect) to 100 (complete control), read-out: Ryegrass, Italian plant response rating",90%
same,pest or weed control at 31 g/ha,"Italian ryegrass; Preemergence, 31 g ai/ha, scale 0 to 100, 0 no effect, 100 complete control, read-out: Plant response rating, Ryegrass, Italian",5%
same,pest or weed control at 62 g/ha,"morningglory [5]; 62 g ai/ha, preemergence, scale 0 (no effect) to 100 (complete control), read-out: Morningglory plant response rating",95%
same,pest or weed control at 125 g/ha,"morningglory [5]; 125 g ai/ha, preemergence, scale 0 (no effect) to 100 (complete control), read-out: Morningglory plant response rating",100%
same,pest or weed control at 250 g/ha,"morningglory [5]; 250 g ai/ha, preemergence, scale 0 (no effect) to 100 (complete control), read-out: Morningglory plant response rating",100%
same,pest or weed control at 31 g/ha,"morningglory [5]; Preemergence, 31 g ai/ha, scale 0 to 100, 0 no effect, 100 complete control, read-out: Plant response rating, Morningglory",55%
same,pest or weed control at 62 g/ha,blackgrass [6]; 62 g ai/ha,85%
same,pest or weed control at 125 g/ha,blackgrass [6]; 125 g ai/ha,90%
same,pest or weed control at 250 g/ha,blackgrass [6]; 250 g ai/ha,90%
same,plant injury at 125 g/ha,"wheat; 125 g ai/ha, 0 to 100 scale where 0 is no effect and 100 is complete control, read-out: Plant response rating, Wheat",40%
same,plant injury at 500 g/ha,"wheat; 500 g ai/ha, 0 to 100 scale, 0 no effect, 100 complete control, read-out: Plant response rating Wheat",100%
same,pest or weed control at 125 g/ha,"blackgrass [7]; 125 g ai/ha, postemergence, read-out: Plant response rating (0 to 100), Blackgrass",10%
same,pest or weed control at 250 g/ha,"blackgrass [7]; 250 g ai/ha, postemergence, read-out: Plant response rating (0 to 100), Blackgrass",25%
same,pest or weed control at 31 g/ha,"blackgrass [7]; Postemergence, 31 g ai/ha, scale 0 to 100 (0 no effect, 100 complete control), 13 to 15 days, read-out: Plant response rating, Blackgrass",5%
same,pest or weed control at 62 g/ha,"blackgrass [7]; Postemergence, 62 g ai/ha, scale 0 to 100 (0 no effect, 100 complete control), read-out: Plant response rating, Blackgrass",5%
same,plant injury at 125 g/ha,"oilseed rape [8]; 125 g ai/ha, postemergence, read-out: Plant response rating (0 to 100), Oilseed Rape",70%
same,plant injury at 250 g/ha,"oilseed rape [8]; 250 g ai/ha, postemergence, read-out: Plant response rating (0 to 100), Oilseed Rape",85%
same,plant injury at 31 g/ha,"oilseed rape [8]; Postemergence, 31 g ai/ha, scale 0 to 100 (0 no effect, 100 complete control), 13 to 15 days, read-out: Plant response rating, Oilseed Rape",25%
same,plant injury at 62 g/ha,"oilseed rape [8]; Postemergence, 62 g ai/ha, scale 0 to 100 (0 no effect, 100 complete control), read-out: Plant response rating, Oilseed Rape",40%
same,plant injury at 62 g/ha,"soybean; 62 g ai/ha, preemergence, scale 0 (no effect) to 100 (complete control), read-out: Soybean plant response rating",85%
same,plant injury at 125 g/ha,"soybean; 125 g ai/ha, preemergence, scale 0 (no effect) to 100 (complete control), read-out: Soybean plant response rating",90%
same,plant injury at 250 g/ha,"soybean; 250 g ai/ha, preemergence, scale 0 (no effect) to 100 (complete control), read-out: Soybean plant response rating",90%
same,plant injury at 31 g/ha,"soybean; Preemergence, 31 g ai/ha, scale 0 to 100, 0 no effect, 100 complete control, read-out: Plant response rating, Soybean",5%
